Measured values published in paper PMC7780349 (Cell, 2020).
Values after ≈ are worked out from the molar mass of the structure shown. Where two headings read alike, the source gives them in different places.

Assays:
[1] = test system: E. coli lptD4213; assay: Membrane potential and permeability assay; details: E. coli lptD4213, 15 min treatment
[2] = test system: B. subtilis dfrA and folC CRISPRi knockdown mutants; type: cell-based; details: growth (OD600) after 14 h relative to DMSO
[3] = test system: S. aureus MRSA USA300; assay: Minimum inhibitory concentration assay
[4] = test system: A. baumannii AB17978; assay: Minimum inhibitory concentration assay
[5] = molecular target: E. coli dihydrofolate reductase (FolA) (Escherichia coli, UniProt P0ABQ4); assay: Dihydrofolate reductase activity assay; type: biochemical
[6] = test system: E. coli lptD4213; assay: Minimum inhibitory concentration assay; details: for MIC: concentration printed as 1× MIC
[7] = test system: B. subtilis 168; assay: Minimum inhibitory concentration assay; type: cell-based
[8] = Maximal tolerated dose in mice; type: in vivo; details: intravenously
[9] = test system: N. gonorrhoeae; assay: Minimum inhibitory concentration assay; details: bacterial culture
[10] = test system: mammalian cells (HEK293, HK-2, HLF, PBMC)
[11] = Mouse liver microsomal stability; type: in vitro ADME; details: 2 μM, 0.5 mg/mL microsomes, NADPH and UDPGA, 1 hour; compared to verapamil
[12] = test system: PBMC; assay: Mammalian cell cytotoxicity; type: cell-based; details: 72 hours
[13] = test system: N. gonorrhoeae ATCC 700825; assay: Neisseria gonorrhea vaginal infection model; type: in vivo, BALB/c mice; details: 10 mg/kg i.v. at 2 and 14 h post-infection, CFUs at 26 h; p < 0.05 vs vehicle
[14] = test system: S. aureus MRSA USA300; assay: Serial passaging assay to evolve resistance; type: cell-based, Staphylococcus aureus; details: S. aureus MRSA USA300, 25 days, sub-lethal concentrations
[15] = test system: B. subtilis; assay: Isolation of resistant mutants by plating; type: cell-based; details: ~10^8 CFUs
[16] = test system: A. baumannii AB17978; assay: Serial passaging assay to evolve resistance; type: cell-based, Acinetobacter baumannii
[17] = test system: MRSA USA300; assay: Isolation of resistant mutants by plating on drug agar; type: cell-based, Staphylococcus aureus; details: ~10^8 CFU on agar with 25 μg/mL SCH-79797 (4X MIC)
[18] = test system: HK-2; type: cell-based
[19] = test system: E. coli lptD4213 ΔthyA; assay: Growth of wild-type and ΔthyA cells with thymine; type: cell-based; details: excess thymine in the medium
[20] = test system: S. aureus MRSA USA300 persister cells; assay: S. aureus MRSA persister cell assay; type: cell-based, Staphylococcus aureus; details: 2 h treatment
[21] = test system: E. coli lptD4213; assay: Colony forming units assay; type: cell-based; details: E. coli lptD4213, 3-h treatment, 2× MIC
[22] = test system: HEK293; type: cell-based
[23] = test system: HLF; type: cell-based
[24] = molecular target: dihydrofolate reductase (FolA) (Escherichia coli, UniProt P0ABQ4); assay: Thermal proteome profiling; type: binding; details: E. coli lptD4213 intact cells and cell lysates
[25] = test system: E. cloacae; assay: Minimum inhibitory concentration assay
[26] = test system: G. mellonella; assay: Galleria mellonella host toxicity; type: in vivo; details: injection at four times the MIC toward A. baumannii
[27] = test system: E. coli NCM3722; assay: Minimum inhibitory concentration assay; type: cell-based; details: Escherichia coli
[28] = test system: P. aeruginosa; assay: Minimum inhibitory concentration assay
[29] = animals; ref Gobbetti et al., 2012; Strande et al., 2007; cited from earlier work
[30] = test system: A. baumannii AB17978; assay: Galleria mellonella killing assay; type: in vivo; details: lethal dose of A. baumannii AB17978; 67 μg/larva; p < 0.001
[31] = test system: folate metabolite pools in E. coli NCM3722; assay: Metabolomics of folate metabolite pools; type: cell-based; details: 13.9 μg/mL (1× MIC), 15 min

Sequence of E. coli dihydrofolate reductase (FolA) (P0ABQ4 whole entry): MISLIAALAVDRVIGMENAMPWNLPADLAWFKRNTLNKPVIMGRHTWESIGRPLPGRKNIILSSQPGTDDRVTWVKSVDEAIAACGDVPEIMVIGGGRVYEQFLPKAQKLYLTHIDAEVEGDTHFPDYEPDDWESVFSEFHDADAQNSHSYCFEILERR
Sequence of dihydrofolate reductase (FolA) (P0ABQ4 whole entry): as above

N#CC(C#N)=NNc1cccc(Cl)c1 [CCCP]
membrane potential and permeability (DiOC2(3) and TO-PRO-3 staining) [1]: expected shifts in both DiOC2(3) and TO-PRO-3 staining

Nc1nc(N)c2c(ccc3[nH]ccc32)n1 [IRS-10]
sensitivity of dfrA and folC CRISPRi knockdowns [2]: maintains the ability to inhibit folate metabolism
potency compared to the parent molecule SCH-79797 ([3]; MRSA USA300): decreased the potency
potency compared to the parent molecule SCH-79797 [4]: decreased the potency
membrane potential and permeability (DiOC2(3) and TO-PRO-3 staining) [1]: does not disrupt membrane polarity or permeability
IC50 ([5]; read-out: IC50 against FolA, 60 μM NADPH and 100 μM DHF, Hill fit): 0.065 ± 0.019 µM
potency compared to the parent molecule SCH-79797 [6]: increased the potency
MIC [6]: 0.4 µg/mL (≈ 2.01 µM)
potency compared to the parent molecule SCH-79797 ([7]; B. subtilis 168): decreased the potency

Nc1nc(N)c2c(ccc3c2ccn3Cc2ccc(-c3ccccc3)cc2)n1 [IRS-16]
sensitivity of dfrA and folC CRISPRi knockdowns [2]: hypersensitive
maximal tolerated dose (MTD) [8]: 15 mg/kg
MIC [9]: 0.03 µg/mL (≈ 0.0821 µM)
increase of therapeutic window relative to SCH-79797 [10]: > 100 fold
stability in mouse liver microsomes [11]: extremely stable
membrane potential and permeability (DiOC2(3) and TO-PRO-3 staining) [1]: disrupted membrane permeability and polarity
MIC against PBMC [12]: greater than the maximal drug concentrations tested
adverse effects (male CD-1 mice, single i.v. dose 15 mg/kg): no adverse effects
time at concentrations above the N. gonorrhoeae MIC (mice, 15 mg/kg i.v., MIC 0.03 μg/mL): ~48 h
half-life (mouse, in vivo, iv, 15 mg/kg): 15.8 h
MIC [6]: 0.02 µg/mL (≈ 0.0547 µM)
vaginal load of N. gonorrhoeae (CFU) [13]: significantly reduced the vaginal load

CC(C)c1ccc(Cn2ccc3c4c(N)nc(NC5CC5)nc4ccc32)cc1 [SCH-79797, N3-cyclopropyl-7-[[4-(1-methylethyl)phenyl]methyl]-7H-pyrrolo[3,2-f]quinazoline-1,3-diamine]
resistance on serial passaging [14]: no SCH-79797-resistant mutants emerged
sensitivity of dfrA and folC CRISPRi knockdowns [2]: sensitized
MIC ([3]; Staphylococcus aureus, MRSA|USA300): 6.3 µg/mL (≈ 17 µM)
isolation of resistant mutants on plating [15]: unable to isolate SCH-79797-resistant mutants
resistance on serial passaging [16]: resistance remained constant
isolation of resistant mutants on plating [17]: unable to isolate stable SCH-79797-resistant mutants
growth inhibition of mammalian cells relative to antibacterial dose [18]: at doses comparable to the doses needed to kill bacteria
sensitivity of ΔthyA versus wild-type cells [19]: no change in sensitivity
viability of persister cells (CFU) [20]: robustly killed these persister cells
bactericidal activity (CFU) [21]: potent and rapid bactericidal activity
growth inhibition of mammalian cells relative to antibacterial dose [22]: at doses comparable to the doses needed to kill bacteria
membrane potential and permeability (DiOC2(3) and TO-PRO-3 staining) [1]: significant defects in both membrane polarization and permeability
growth inhibition of mammalian cells relative to antibacterial dose [23]: at doses comparable to the doses needed to kill bacteria
thermal stability of dihydrofolate reductase (FolA) [24]: significantly shifted the thermal stability
MIC [25]: greater the maximal drug concentrations tested
host toxicity [26]: did not result in higher host toxicity than the solvent-only control
IC50 [5]: 8.6 ± 3 µM
MIC [27]: 13.9 µg/mL (≈ 37.4 µM)
MIC [28]: greater the maximal drug concentrations tested
MIC ([7]; Bacillus subtilis, 168): 3.1 µg/mL (≈ 8.34 µM)
safely tolerated dose [29]: at least 5 mg/kg
survival of infected larvae [30]: significantly prolonged the survival
rise of 7,8-dihydrofolate (DHF) level compared to untreated cells [31]: ~ 10 fold

CC(C)c1ccccc1 [isopropylbenzene]
sensitivity of dfrA and folC CRISPRi knockdowns [2]: no effect
membrane potential and permeability (DiOC2(3) and TO-PRO-3 staining) [1]: disrupts both membrane polarity and permeability

CO[C@@H]1[C@@H](OC(N)=O)[C@@H](O)[C@H](Oc2ccc3c(O)c(NC(=O)c4ccc(O)c(CC=C(C)C)c4)c(=O)oc3c2C)OC1(C)C [novobiocin]
resistance on serial passaging [14]: resistance gradually increased
membrane potential and permeability (DiOC2(3) and TO-PRO-3 staining) [1]: do not shift DiOC2(3) or TO-PRO-3 staining

CO[C@H]1/C=C/O[C@@]2(C)Oc3c(C)c(O)c4c(O)c(c(/C=N/N5CCN(C)CC5)c(O)c4c3C2=O)NC(=O)/C(C)=C\C=C\[C@H](C)[C@H](O)[C@@H](C)[C@@H](O)[C@@H](C)[C@H](OC(C)=O)[C@@H]1C [rifampicin]
membrane potential and permeability (DiOC2(3) and TO-PRO-3 staining) [1]: do not shift DiOC2(3) or TO-PRO-3 staining

COc1cc(Cc2cnc(N)nc2N)cc(OC)c1OC [trimethoprim]
sensitivity of dfrA and folC CRISPRi knockdowns [2]: hypersensitive
sensitivity of ΔthyA versus wild-type cells [19]: led to trimethoprim resistance
membrane potential and permeability (DiOC2(3) and TO-PRO-3 staining) [1]: no significant changes in DiOC2(3) and TO-PRO-3 staining
MIC [27]: 0.15 µg/mL (≈ 0.517 µM)

daptomycin
viability of persister cells (CFU) [20]: did not reduce the number of CFUs

nisin
resistance on serial passaging [14]: resistance gradually increased
membrane potential and permeability (DiOC2(3) and TO-PRO-3 staining) [1]: expected shifts in both DiOC2(3) and TO-PRO-3 staining

polymyxin B
membrane potential and permeability (DiOC2(3) and TO-PRO-3 staining) [1]: expected shifts in both DiOC2(3) and TO-PRO-3 staining
